Where two headings read alike, the source gives them in different places.
Legend:
[1] = system: male SD rats with 7/8 of their kidney arteries ligated; assay: renal osteodystrophy model: rats with 7/8 of kidney arteries ligated, oral administration for 4 months; femur mineral content by single photon absorptiometry and bone histology; assay type: in vivo; conditions: sham-operated control 0.284± 0.023, ligation-operated control 0.259± 0.017
From the text: In view of these circumstances, the present inventors have made extensive investigations to develop novel rat models wherein renal insufficiency induces abnormal bone quality and low bone mass similar to clinical renal osteodystrophy. As a result, the present inventors have succeeded in obtaining an animal model with such diseases. Thus, after 7/8 of kidney arteries were ligated, animals endurable even for a long breeding term with a mild renal insufficiency were selected and carefully bred for 6 months to establish an animal model with renal osteodystrophy with accompanying abnormal bone quality and low bone mass.
After male SD rats with 7/8 of their kidney arteries ligated at 11 weeks old are bred for 8 weeks, 24R, 25-(OH)₂-D₃ and 24, 25-(OH)₂-D₃ (a racemate of 24R and 24S isomers) are administered orally to the rat for 4 months, respectively.
A solution of sesame oil (the Pharmacopoeia of Japan) containing 0.5 % ethanol is utilized as the solvent. The test is conducted by using 5 groups each of which consists of 6 to 10 rats as follows: • I. sham-operated control group (normal control group, solvent administration) n=8 • II. solvent administration control group n=6 • III. 24R, 25-(OH)₂-D₃ 0.1 µg/kg n=6 • IV. 24R, 25-(OH)₂-D₃ 5.0 µg/kg n=10 • V. 24, 25-(OH)₂-D₃ 5.0 µg/kg n=10
After administration, blood is anesthetically collected and applied to a biochemical serum analysis. After femur is resected, mineral content of femur is measured by means with equipment capable of measuring bone mass (single photon absorptiometry; SPA). Further, the bone tissue sample is stained by Villaneuva's bone staining after slicing, followed by observation under a microscope.

[2] = acute toxicity, oral administration in sesame oil, death rates for 2 weeks; conditions: mouse, in vivo, sesame oil containing 0.5 % ethanol, read-out: LD₅₀ (lethal dose, 50% mortality)
Procedure: The active compound of the present invention is tested for acute toxicity and the resultant data is shown as follows:
The active compound of the present invention, 24R, 25-(OH)₂-D₃ is admixed with a sesame oil (containing 0.5 % ethanol) and the mixture is orally administered to 4 groups of female and male ICR mice (each group has 5 mice) (body weight: male 29 to 33 g, female 22 to 29 g). Two weeks later, toxic symptom is observed.

Row | SMILES | bone mass (mineral content of femur, SPA) ([1]; 5.0 µg/kg orally for 4 months) | LD50 at 336 h ([2]; female ICR mice) | LD50 at 336 h ([2]; male ICR mice) | bone mass (mineral content of femur, SPA) ([1]; 0.1 µg/kg orally for 4 months)
1 | C=C1CC[C@H](O)C/C1=C/C=C1\CCC[C@]2(C)[C@@H]([C@H](C)CCC(O)C(C)(C)O)CC[C@@H]12 (some centres unmarked) [24, 25-(OH)₂-D₃, 24, 25-dihydroxycholecalciferol] | 0.282± 0.025 g/cm² |  |  | 
2 | C=C1CC[C@H](O)C/C1=C/C=C1\CCC[C@]2(C)[C@@H]([C@H](C)CC[C@@H](O)C(C)(C)O)CC[C@@H]12 [24R, 25-(OH)₂-D₃, 24R, 25-dihydroxycholecalciferol] | 0.292 ± 0.019 g/cm² | 253 mg/kg | 215 mg/kg | 0.291± 0.032 g/cm²
